Laboratory results: patent US9951271B2, “Process for making an asymmetric fluorophore” (UNITED STATES OF AMERICA, AS REPRESENTED BY THE SECRETARY …, priority 2015, dated 2018)

Tests used:
[1] = Aqueous solubility of the fluorophore; assay type: physicochemical; settings: pH independent, diluted to 0.1% DMSO from 100 mM DMSO stock
Procedure: The resulting fluorophore (6) was soluble in aqueous solutions (pH independent) up to […] and was diluted down to 0.1% DMSO from a 100 mM, 100% DMSO stock solution. […] Compound (6) has a sharp fluorescence peak and high quantum yield.

[2] = Photophysical characterization (UV-Vis, fluorescence emission, relative quantum yield); assay type: physicochemical
Procedure: The UV-Vis and fluorescence emission spectra were recorded on a Synergy HT (BioTek Instruments, Inc.) multi-detection microplate reader equipped with a 10 W Xe flash light source for absorbance and a 20 W tungsten quartz halogen source for fluorescence. Relative quantum yields were determined using rhodamine 6G in ddH2O as a reference while keeping instrument temperature and parameters constant. Serial dilutions of the asymmetric fluorophore (6) were made from a methanol stock; therefore, all dilutions of asymmetric fluorophore (6) were kept at 10% MeOH in water. All fluorescent spectra were intensity corrected using NIST SRM 2941 (excitation wavelength at 427 nm, scan emission monochromator from 450 nm to 650 nm using a 1 nm increment).

[3] = system: NIH 3T3 cells; assay: Live cell imaging (whole-cell staining); assay type: cell-based; settings: live NIH 3T3 cells; for staining pattern compared under same conditions and concentrations: 100 nM, FIG. 3
Procedure: (§1) NIH 3T3 cell line was obtained from ATCC (Manassas, Va.) and cultured routinely using sterile technique. Cell culture media consisted of DMEM supplemented with 10% FBS and 4 mM GlutaMax (Life Technologies). Both live and fixed cell automated microscopy was performed on a Zeiss AxioObserver Z1 (Carl Zeiss MicroImaging Inc., Jena, Germany) with an EC Plan-Neofluar 10×/0.30 Ph 1 objective (Carl Zeiss, Jena, Germany), and a Coolsnap HQ2 camera (Photometrics, Tucson, Ariz.). All fluorescent microscopy images were collected using a HE38 filter set (Carl Zeiss, Jena, Germany), a Colibri.2 LED light source at 100% intensity, and an exposure time of either 200 ms or 1 second. Performance benchmarking of the fluorescence microscope was performed daily. All imaging was done on the same day on the same microscope to decrease variations in image intensities. ImageJ (National Institutes of Health, Bethesda, Md.) was used to create figures and to determine the mean fluorescence intensity of cells.
One day prior to imaging, NIH 3T3 cells were seeded at 10,000 cells per well in a 24-well plate (Corning Costar, TC-treated). After 24 hours of incubation (37° C., 5% CO2), the media was removed from the plate and cells were washed once with DPBS (Ca and Mg free, Life Sciences). A total of 320 μL of DPBS with glucose was added to each well, and then 40 μL of Hoechst 33342 (final concentration of 0.5 μg/mL) and 40 μL of 4 (final concentrations from 10 μM to 1 nM were tested, final DMSO concentration=0.1%) or CFSE (final concentrations from 10 μM to 1 nM were tested, final DMSO concentration=0.1%). […] Using ImageJ (National Institutes of Health, Bethesda, Md.) individual cell fluorescence intensities were measured by first segmenting the 8-bit tiff image for the 6/CFSE/FNHS channel by manually finding the minimum intensity below which object boundaries began to expand into the background (the built-in watershed algorithm was also utilized to separate touching objects). Using a histogram of object sizes, the minimal object area was chosen and pixel intensity for each of those objects were recorded. […]

[4] = system: NIH 3T3 cells; assay: Fixed cell imaging (whole-cell staining); assay type: cell-based; settings: fixed NIH 3T3 cells, 1 μM
Procedure: as §1, with “All imaging was done on the same day on the same microscope to decrease variations in image intensities.” left out
One day prior to imaging, NIH 3T3 cells were seeded at 20,000 cells per well in a 24-well plate (Corning Costar, TC-treated). […] Using ImageJ (National Institutes of Health, Bethesda, Md.) individual cell fluorescence intensities were measured by first segmenting the 8-bit tiff image for the 4/CFSE/FNHS channel by manually finding the minimum intensity below which object boundaries began to expand into the background (the built-in watershed algorithm was also utilized to separate touching objects). […]

[5] = system: NIH 3T3 cells; assay: Basal cytotoxicity MTS assay (cell viability); assay type: cell-based; settings: concentrations below 10 μM, 72-hour incubation, FIG. 6
Procedure: On day one, 5,000 cells per well were plated on a clear 96-well plate (Corning Costar, TC-treated) along with several blank wells with media only. The next day, the media was replaced with 180 μL of DPBS with glucose and 20 μL of 4 (final concentrations from 30 μM to 1 nM were tested, final DMSO concentration=0.1%) and incubated for 30 minutes. The dye solution was removed from the wells and 200 μL of fresh media was added to each well in the plate. The plate was then incubated (37° C., 5% CO2) for 72 hours. Then 40 μL of MTS (Promega, CellTiter 96® AQueous One Solution Cell Proliferation Assay) was added to each well and the plate was incubated (37° C., 5% CO2) for 4 hours. The absorbance of each well at 540 nm was measured on a Synergy HT plate reader (BioTek Instruments, Inc.). All assays were performed in triplicate on three separate plates.

Compound | soluble in aqueous solutions [1] | emission ([2]; 10% aqueous methanol, FIG. 1) | maximum excitation ([2]; 10% aqueous methanol, FIG. 1) | relative quantum yield ([2]; 10% aqueous methanol, reference rhodamine 6G in ddH2O) | maximum absorption ([2]; water (10% MeOH), FIG. 1 legend) | maximum excitation (excited at 500 nm) ([2]; water (10% MeOH), excited at 500 nm, FIG. 1 legend) | staining pattern compared under same conditions and concentrations [3] | staining of live cells (membrane crossing, localisation) ([3]; 30 minutes of staining, 1 μM, FIG. 2) | fluorescence intensity relative to FNHS (quantitative image analysis) ([4]; FIG. 4) | brightness by visual appearance versus FNHS ([4]; same conditions, FIG. 5) | change in cell viability [5]
CC1=C(CCC(=O)ON2C(=O)CCC2=O)C(C)=[N+]2C1=Cc1cccn1[B-]2(F)F [Compound 6, 4,4-difluoro-1,3-dimethyl-4-bora-3a,4a-diaza-s-indacene-2-propionic acid N-hydroxysuccinimide ester] | up to 1 μM | 516 nm | 502 nm | 0.84 | 502 nm | 516 nm | less diffuse staining | crossed the cell membrane and stained the cytoplasmic regions with some nuclear staining | three fold brighter than FNHS | appeared brighter than FNHS | no significant change in cell viability
carboxyfluorescein succinimidyl ester [CFSE, reference compound] | – | – | – | – | – | – | more diffuse staining pattern | – | – | – | –
